In patent publication US6858393B1, “Chain terminators for DNA synthesis” (Stratagene California, priority 2002, dated 2005):

Tested on: DNA polymerase (JDF-3 P41OL/A485T)
Experiment: Assay for incorporation of chain terminators (primer extension, denaturing PAGE on ABI 377 sequencer)
Assay type: biochemical
Details: for terminator/dNTP ratio giving a similar pattern (signal strength and length): FIG. 8, ddATP lane 2, PME-App lane 3, dNTPs each at 50 μM, 25 cycles
Description: Reactions (20 μl) consisted of 0.5 pmol fluorescein-labeled primer pFI-20, 1 pmol pBluescript II, 5 U DNA polymerase (JDF-3 P41OL/A485T), all four dNTPs (each at 50 μM) and varying concentrations of only ddATP or PME-App in 20 mM Tris pH 8.8, 10 mM (NH4)2SO4, and 2 mM MgSO4. Reactions were incubated in a Perkin-Elmer 9600 for 25 cycles as follows: 95° C. for 30 s, 50° C. for 30 s and 72° C. for 4 min. The reactions were quenched with ice-cold 0.2 M EDTA (final concentration), dried, and the pellets dissolved in a 3:1 formamide: EDTA/blue dextran. Reactions were then analyzed by 6% denaturing PAGE on an ABI 377 sequencer.
The relative ratio can be determined more exactly by repeating the reactions over a narrower range of ratios.

Compound	terminator/dNTP ratio giving a similar pattern (signal strength and length)	relative incorporation efficiency of ddATP versus PME-App (ddATP better than PME-App, from comparison of lane patterns in FIG. 8, all four dNTPs each at 50 μM) [fold]
Nc1ncnc2c1ncn2CCOCP(=O)(O)OP(=O)(O)OP(=O)(O)O [PME-App, PME-adenine diphosphate]	1/5	
Nc1ncnc2c1ncn2[C@H]1CC[C@@H](COP(=O)(O)OP(=O)(O)OP(=O)(O)O)O1 [ddATP]	1/10	2
